In brackets after ≈: the same amount, converted by molar mass. Like-named read-outs stand apart in the source and are kept apart here.
Columns and labels:
[1] = test system: S. aureus SCV NewbouldΔhemB; assay: microbe, parasite or virus in culture; format: cell-based; conditions: Staphylococcus aureus, 24 h, read-out: Diameter of inhibition zone
[2] = test system: Clostridium perfringens ATCC 13124; assay: microbe, parasite or virus in culture; format: cell-based; conditions: ATCC13124, 48 h, read-out: Diameter of inhibition zone
[3] = test system: normal S. aureus strain CF07-L; assay: Broth growth with HQNO and/or tomatidine, visually evaluated (FIG. 2); format: cell-based, Staphylococcus aureus; conditions: combination of HQNO (20 μg/ml) and tomatidine (8 μg/ml), 48 h
Protocol: The MICs of tomatidine, tomatine and control antibiotics (gentamicin, vancomycin, erythromycin, ciprofloxacin and oxacillin) were determined against the normal strains ATCC 29213 and CF07-L as well as against the SCV strain CF07-S in the presence of 20 μg HQNO/ml.

SCV NewbouldΔhemB = assay: Tomatidine susceptibility with supplemental hemin, spotted on agar (FIG. 1A); format: cell-based, Staphylococcus aureus; conditions: in the presence of supplemental hemin
Protocol: Normal (Newbould, CF07-L and CF1A-L), and SCV (NewbouldΔhemB (in the presence and absence of hemin), CF07-S (in the presence and absence of menadione) and CF1D-S) S. aureus strains were treated with various concentrations of tomatidine (4, 2, 1, 0.5, 0.25, 0.12 and 0.06 μg/ml) for 48 h in the Brain Hearth Infusion (BHI) medium at 35° C. and 10 μl samples were thereafter spotted on agar plated which were further incubated for 48 h before a picture was taken.

SCV strain CF07-S = assay: Time-kill experiment (FIG. 1C); format: cell-based, Staphylococcus aureus; conditions: tomatidine at 0.25 μg/ml (2×MIC)
Protocol: (§1) (225 RPM), bacteria were sampled, serially diluted and plated on tryptic soy agar (TSA) for colony-forming unit (CFU) determinations (i.e., viable bacterial counts). Plates were incubated for 24 or 48 h at 35° C. for normal and SCV strains, respectively. The antibacterial activities of tomatidine and control antibiotics (erythromycin (a bacteriostatic macrolide) and ciprofloxacin (a bactericidal fluoroquinolone) against the normal CF07-L strain and the SCV CF07-S as a function of time are presented in FIGS. 1B and 1C, respectively. The antibacterial activity of tomatine against the SCV strain was also evaluated (TN in FIG. 1C).

normal CF07-L strain = assay: Time-kill experiment (FIG. 1B); format: cell-based, Staphylococcus aureus; conditions: tomatidine 16 μg/ml
Protocol: as §1

[4] = test system: protein, DNA, RNA and cell wall peptidoglycan biosynthesis in ATCC 29213; assay: Macromolecular biosynthesis assay, incorporation of radiolabeled precursors; format: cell-based, Staphylococcus aureus
[5] = test system: S. aureus ATCC 29213 alone; assay: Viability in mono-culture, CAMHB; format: cell-based, Staphylococcus aureus; conditions: SA alone + TO at 8 μg/ml
Source text: Bacteria were sampled, serially diluted and plated on tryptic soy agar for CFU determinations. […] Mannitol-salt agar plates were used to selectively evaluate S. aureus CFU when in co-culture with P. aeruginosa.

[6] = test system: Bacillus cereus ATCC 11778; assay: Agar diffusion method, zone of inhibition; format: cell-based; conditions: ATCC11778, Tomatidine (35 μg), 24 hours at 35° C., DMSO 0, read-out: Diameter of inhibition zone
Protocol: (§2) The effect of tomatidine on the growth of Bacillus subtilis strains ATCC 6633 and ATCC 9372, Bacillus cereus strain ATCC 11778 and Listeria monocytogenes strain ATCC 13932 was tested by an agar diffusion method. Bacillus spp. strains and Listeria monocytogenes were spread on the surface of Mueller-Hinton agar and Mueller-Hinton supplemented with 5% sheep blood, respectively. 35 μg of tomatidine diluted in DMSO or DMSO alone were added to wells for diffusion and plates were incubated for 24 hours at 35° C. The diameters of the zones of inhibition around the wells (for the DMSO control and for the tomatidine well) were measured and reported in mm in TABLE 12 below.

[7] = test system: Bacillus subtilis ATCC 6633; assay: Agar diffusion method, zone of inhibition; format: cell-based; conditions: ATCC6633, Tomatidine (35 μg), 24 hours at 35° C., DMSO 5, read-out: Diameter of inhibition zone
Protocol: as §2

[8] = test system: Bacillus subtilis ATCC 9372; assay: Agar diffusion method, zone of inhibition; format: cell-based; conditions: ATCC9372, Tomatidine (35 μg), 24 hours at 35° C., DMSO 0, read-out: Diameter of inhibition zone
Protocol: as §2

[9] = test system: Listeria monocytogenes ATCC 13932; assay: Agar diffusion method, zone of inhibition; format: cell-based; conditions: ATCC13932, Tomatidine (35 μg), 24 hours at 35° C., 5% sheep blood, DMSO 0, read-out: Diameter of inhibition zone
Protocol: as §2

[10] = test system: S. aureus SCVs (NewbouldΔhemB, CF07-S and CF1D-S); assay: MIC, microdilution in BHI 48 h, summary for SCVs; format: cell-based, Staphylococcus aureus; conditions: Staphylococcus aureus, read-out: MIC against all SCVs
[11] = test system: S. aureus SCV strain CF6A-S; assay: microbe, parasite or virus in culture; format: cell-based; conditions: Staphylococcus aureus
[12] = test system: S. saprophyticus ATCC 15305; assay: MIC, microdilution, with or without tomatidine; conditions: for MIC: Staphylococcus saprophyticus
[13] = test system: colonies isolated from S. aureus ATCC 29213 cultures exposed to gentamicin; assay: Gentamicin susceptibility of colonies isolated from 24 h-cultures exposed to gentamicin; format: cell-based, Staphylococcus aureus
Protocol: Accordingly, colonies isolated from 24 h-cultures exposed to gentamicin were often normal-growing bacteria with a decreased susceptibility to gentamicin (MIC ranging from 1 to 4 μg/ml) or SCVs (MIC for gentamicin ranging from 4 to 8 μg/ml). […] From these time-kill experiments, isolated colonies obtained from cultures exposed to gentamicin combined or not with 8 μg/ml tomatidine were analyzed for their susceptibility to gentamicin. When ATCC 29213 was exposed to gentamicin alone, the emergence of numerous normal-growing isolates showing decreased susceptibility to gentamicin (MIC ranging from 1 to 4 mg/L) was easily detected.

SCV CF07-S = assay: Broth growth with gentamicin or tomatidine, visually evaluated (FIG. 5B); conditions: gentamicin at 4 μg/ml or tomatidine at 0.12 μg/ml alone, 48 h
[14] = test system: heterogeneous population of normal strain CF07-L and SCV CF07-S; assay: Broth growth with gentamicin and tomatidine, visually evaluated (FIG. 5C); conditions: combination of gentamicin at 4 μg/ml and tomatidine at 0.12 μg/ml
[15] = colonies from 24 h-cultures exposed to gentamicin

`C[C@H]1CC[C@]2(NC1)O[C@H]1C[C@H]3[C@@H]4CC[C@H]5C[C@@H](O)CC[C@]5(C)[C@H]4CC[C@]3(C)[C@H]1[C@@H]2C` [Tomatidine, tomatidine] was tested, and the zone of inhibition at 50 µg/disc [1] was 23.5 mm, the zone of inhibition at 50 µg/disc [2] was 11 mm and the “growth, visually evaluated” value [3] was “inhibitory activity”. The susceptibility to tomatidine (SCV NewbouldΔhemB) was “abolished”, the “time-kill effect on growth and viability” value (SCV strain CF07-S) was “induced bacteriostasis” and the “time-kill effect on growth” value (normal CF07-L strain) was “does not affect the growth”. The biosynthesis of macromolecules ([4]; in the presence of 20 μg HQNO/ml, all tested concentrations above 0.12 μg/ml, FIG. 3C) was “decreased the biosynthesis of all macromolecules”, the synthesis of macromolecules ([4]; tomatidine up to 125 μg/ml, no HQNO, vs DMSO-treated control, FIG. 3B) was “did not alter the synthesis of any macromolecule” and the “Viability of S. aureus” value ([5]; 0 h) was 5.1 ± 0.4 Log10 CFU/ml. The “Viability of S. aureus” value ([5]; 24 h) was 9.64 ± 0.08 Log10 CFU/ml, the zone of inhibition at 35 µg/disc [6] was 21.5 mm and the zone of inhibition at 35 µg/disc [7] was 25.5 mm. The zone of inhibition at 35 µg/disc [8] was 25.5 mm, the zone of inhibition at 35 µg/disc [9] was 12.5 mm and the MIC [10] was 0.12 µg/mL (≈ 0.289 µM).

`NC[C@H]1O[C@H](O[C@H]2[C@H](O)[C@@H](O[C@H]3O[C@H](CO)[C@@H](O)[C@H](N)[C@H]3O)[C@H](N)C[C@@H]2N)[C@H](N)C[C@@H]1O` [Tobramycin, tobramycin] was tested, and the MIC [11] was over 32 µg/mL, the “Fold (−TO/+TO)” value ([12]; S. saprophyticus ATCC 15305, 8 μg/ml of tomatidine) was 8 fold and the MIC ([12]; ATCC15305, read-out: MIC +TO) was 0.016 µg/mL (≈ 0.0342 µM). For the same molecule, the MIC ([12]; ATCC15305, read-out: MIC −TO) was 0.12 µg/mL (≈ 0.257 µM).

In the case of gentamicin, the “MIC of normal-growing isolates showing decreased susceptibility to gentamicin” value ([13]; ATCC 29213 exposed to gentamicin alone) was 1 to 4 mg/L, the “MIC for gentamicin of SCVs” value [13, 15] was 4 to 8 µg/mL and the “MIC for gentamicin of normal-growing bacteria with decreased susceptibility” value [13, 15] was 1 to 4 µg/mL. The “growth, visually evaluated” value (SCV CF07-S) was “does not inhibit the growth” and the “growth, visually evaluated” value [14] was “inhibits the growth”.
